From ChEMBL document CHEMBL5154873, “Selective degradation of PARP2 by PROTACs via recruiting DCAF16 for triple-negative breast cancer” (Eur J Med Chem, 2022)
Active and inactive are the calls of the source. The rule behind the calls is not given here.

Key:
[1] = Toxicity in BALB/c mouse xenografted with MDA-MB-231 cells assessed as pathological changes in liver at 25 mg/kg, ip measured after 21 days by hematoxylin and eosin staining based assay; type: organism-based; settings: in vivo, 504 h, time 21 day
[2] = molecular target: T1, DDB1- and CUL4-associated factor 16/Poly [ADP-ribose] polymerase 2 (Homo sapiens, UniProt Q9UGN5+Q9NXF7); experiment: Protac activity at DCAF16 E3 ligase/PARP2 in human MDA-MB-231 cells assessed as induction of PARP2 degradation at 0.5 uM measured after 8 hrs by Western blot analysis; type: cell-based
Target sequence in this assay (Q9NXF7 whole entry, looked up): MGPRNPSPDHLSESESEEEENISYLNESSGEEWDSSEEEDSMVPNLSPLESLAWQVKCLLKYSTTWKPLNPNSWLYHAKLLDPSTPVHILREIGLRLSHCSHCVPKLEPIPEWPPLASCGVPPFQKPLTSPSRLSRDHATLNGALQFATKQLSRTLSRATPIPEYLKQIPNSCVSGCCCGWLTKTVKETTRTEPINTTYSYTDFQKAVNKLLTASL
Target sequence in this assay (Q9UGN5 whole entry, looked up): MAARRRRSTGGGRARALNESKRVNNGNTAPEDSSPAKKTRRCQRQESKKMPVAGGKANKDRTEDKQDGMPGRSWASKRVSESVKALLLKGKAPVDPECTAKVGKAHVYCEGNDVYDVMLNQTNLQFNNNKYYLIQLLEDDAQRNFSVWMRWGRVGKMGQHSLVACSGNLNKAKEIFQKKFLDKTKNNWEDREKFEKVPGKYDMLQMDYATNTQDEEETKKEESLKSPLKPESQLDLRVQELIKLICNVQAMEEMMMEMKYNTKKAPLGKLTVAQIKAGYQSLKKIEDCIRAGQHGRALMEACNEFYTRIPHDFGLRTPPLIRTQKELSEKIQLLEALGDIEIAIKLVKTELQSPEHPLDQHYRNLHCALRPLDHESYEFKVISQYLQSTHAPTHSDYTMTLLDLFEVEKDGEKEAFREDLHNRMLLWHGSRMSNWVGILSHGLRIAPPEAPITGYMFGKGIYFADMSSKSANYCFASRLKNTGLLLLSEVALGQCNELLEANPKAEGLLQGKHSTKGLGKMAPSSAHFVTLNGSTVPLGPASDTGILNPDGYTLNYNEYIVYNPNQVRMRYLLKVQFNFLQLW

SW-620 = experiment: Antiproliferative activity against human SW-620 cells over expressing DCAF16 assessed as reduction in cell viability incubated for 5 to 10 days by MTT assay; type: functional, cell-based; settings: time 5-10 day
MV4-11 = experiment: Antiproliferative activity against human MV4-11 cells over expressing DCAF16 assessed as reduction in cell viability incubated for 5 to 10 days by MTT assay; type: functional, cell-based; settings: time 5-10 day
[3] = Toxicity in BALB/c mouse xenografted with MDA-MB-231 cells assessed as change in body weight at 12.5 to 25 mg/kg, ip measured after 21 days; type: organism-based; settings: in vivo, 504 h, dose 12.5-25 mg/kg, time 21 day
NCI-H2228 = experiment: Antiproliferative activity against human H2228 cells over expressing DCAF16 assessed as reduction in cell viability incubated for 5 to 10 days by MTT assay; type: functional, cell-based; settings: time 5-10 day
CAPAN-1 = experiment: Antiproliferative activity against human BRCA2 -/- CAPAN-1 cells assessed as reduction in cell viability incubated for 5 to 10 days by MTT assay; type: functional, cell-based
MDA-MB-436 [4] = experiment: Induction of cell cycle arrest in human (BRAC1-/-) MDA-MB-436 cells assessed as accumulation at G2/M phase measured after 48 hrs by flow cytometry analysis; type: functional, cell-based; settings: dose 0.312-2.5 µM, DDE = dose-dependent effect
NCI-H3122 = experiment: Antiproliferative activity against human H3122 cells over expressing DCAF16 assessed as reduction in cell viability incubated for 5 to 10 days by MTT assay; type: functional, cell-based; settings: time 5-10 day
[5] = Toxicity in BALB/c mouse xenografted with MDA-MB-231 cells assessed as change in body weight at 100 mg/kg, IG measured after 21 days; type: organism-based; settings: in vivo, po, 504 h, time 21 day
SK-OV-3 = experiment: Antiproliferative activity against human SK-OV-3 cells over expressing DCAF16 assessed as reduction in cell viability incubated for 5 to 10 days by MTT assay; type: functional, cell-based; settings: time 5-10 day
[6] = Toxicity in BALB/c mouse xenografted with MDA-MB-231 cells assessed as morbidity at 12.5 to 25 mg/kg, ip measured after 21 days; type: organism-based; settings: in vivo, 504 h, dose 12.5-25 mg/kg, time 21 day
MDA-MB-231 [7] = experiment: In vivo antitumor activity against human MDA-MB-231 cells xenografted BALB/c mouse assessed as tumor growth inhibition at 12.5 mg/kg, ip measured after 21 days; type: functional; settings: MDA-MB-231, 504 h, time 21 day, read-out: TGI
[8] = molecular target: T1, DDB1- and CUL4-associated factor 16/Poly [ADP-ribose] polymerase 2; experiment: Protac activity at DCAF16 E3 ligase/PARP2 in human MDA-MB-231 cells assessed as induction of PARP2 degradation at 0.5 uM preincubated for 2 hrs followed by compound washout measured after 48 hrs by Western blot analysis; type: cell-based
Target sequence in this assay (Q9NXF7 whole entry, looked up): as the sequence (Q9NXF7 whole entry, looked up) above
Target sequence in this assay (Q9UGN5 whole entry, looked up): as the sequence (Q9UGN5 whole entry, looked up) above

MDA-MB-468 [9] = experiment: Antiproliferative activity against human PTEN -/- MDA-MB-468 cells assessed as reduction in cell viability incubated for 5 to 10 days by MTT assay; type: functional, cell-based
[10] = Toxicity in BALB/c mouse xenografted with MDA-MB-231 cells assessed as pathological changes in heart at 25 mg/kg, ip measured after 21 days by hematoxylin and eosin staining based assay; type: organism-based; settings: in vivo, 504 h, time 21 day
MDA-MB-231 [11] = experiment: Induction of apoptosis in human wild type MDA-MB-231 cells at 1.25 uM measured after 48 hrs by Annexin V-FITC/PI staining based flow cytometry method; type: functional
MDA-MB-231 [12] = experiment: Antiproliferative activity against wild type human MDA-MB-231 cells assessed as reduction in cell viability incubated for 5 to 10 days by MTT assay; type: functional, cell-based
MDA-MB-231 [13] = experiment: Inhibition of colony formation in human MDA-MB-231 cells measured after 14 days by crystal violet staining based analysis; type: functional, cell-based; settings: dose 0.312-5 µM, time 14.0 day, DDE = dose-dependent effect
MDA-MB-231 [14] = experiment: Potency index, ratio of IC50 of Olaparib to IC50 of test compound antiproliferative activity against wild type human MDA-MB-231 cells assessed as reduction in cell viability incubated for 5 to 10 days by MTT assay; type: functional; settings: time 5-10 day
[15] = molecular target: Poly [ADP-ribose] polymerase 2 (Homo sapiens, UniProt Q9UGN5); experiment: Inhibition of PARP2 (unknown origin)
[16] = Toxicity in BALB/c mouse xenografted with MDA-MB-231 cells assessed as pathological changes in lung at 25 mg/kg, ip measured after 21 days by hematoxylin and eosin staining based assay; type: organism-based; settings: in vivo, 504 h, time 21 day
MDA-MB-468 [17] = experiment: Potency index, ratio of IC50 of Olaparib to IC50 of test compound antiproliferative activity against human PTEN -/- MDA-MB-468 cells assessed as reduction in cell viability incubated for 5 to 10 days by MTT assay; type: functional; settings: time 5-10 day
HepG2 = experiment: Antiproliferative activity against human HepG2 cells over expressing DCAF16 assessed as reduction in cell viability incubated for 5 to 10 days by MTT assay; type: functional, cell-based; settings: time 5-10 day
MDA-MB-231 [18] = experiment: In vivo antitumor activity against human MDA-MB-231 cells xenografted BALB/c mouse assessed as tumor growth inhibition at 25 mg/kg, ip measured after 21 days; type: functional; settings: MDA-MB-231, 504 h, time 21 day, read-out: TGI
[19] = Toxicity in BALB/c mouse xenografted with MDA-MB-231 cells assessed as morbidity at 100 mg/kg, IG measured after 21 days; type: organism-based; settings: in vivo, po, 504 h, time 21 day
[20] = Toxicity in BALB/c mouse xenografted with MDA-MB-231 cells assessed as mortality at 100 mg/kg, IG measured after 21 days; type: organism-based; settings: in vivo, po, 504 h, time 21 day
MDA-MB-231 [21] = experiment: Induction of cell cycle arrest in human MDA-MB-231 cells assessed as accumulation at G2/M phase measured after 24 hrs by flow cytometry analysis; type: functional, cell-based; settings: dose 0.156-1.25 µM, DDE = dose-dependent effect
HeLa = experiment: Antiproliferative activity against human HeLa cells over expressing DCAF16 assessed as reduction in cell viability incubated for 5 to 10 days by MTT assay; type: functional, cell-based; settings: time 5-10 day
[22] = Toxicity in BALB/c mouse xenografted with MDA-MB-231 cells assessed as pathological changes in spleen at 25 mg/kg, ip measured after 21 days by hematoxylin and eosin staining based assay; type: organism-based; settings: in vivo, 504 h, time 21 day
MDA-MB-436 [23] = experiment: Antiproliferative activity against human BRCA1 -/- MDA-MB-436 cells assessed as reduction in cell viability incubated for 5 to 10 days by MTT assay; type: functional, cell-based
L02 = experiment: Cytotoxicity against human L02 cells; type: toxicity, cell-based
[24] = molecular target: T1, DDB1- and CUL4-associated factor 16/Poly [ADP-ribose] polymerase 2; experiment: Protac activity at DCAF16 E3 ligase/PARP2 in human MDA-MB-231 cells assessed as induction of PARP2 degradation measured after 24 hrs by Western blot analysis; type: cell-based
Target sequence in this assay (Q9UGN5 whole entry): as the sequence (Q9UGN5 whole entry, looked up) above
Target sequence in this assay (Q9NXF7 whole entry): as the sequence (Q9NXF7 whole entry, looked up) above

[25] = molecular target: T1, DDB1- and CUL4-associated factor 16/Poly [ADP-ribose] polymerase 2; experiment: Protac activity at DCAF16 E3 ligase/PARP2 in human MDA-MB-231 cells assessed as induction of PARP2 degradation at 1 uM measured after 24 hrs by Western blot analysis; type: cell-based
Target sequence in this assay (Q9NXF7 whole entry, looked up): as above
Target sequence in this assay (Q9UGN5 whole entry, looked up): as the sequence (Q9UGN5 whole entry, looked up) above

[26] = molecular target: T1, DDB1- and CUL4-associated factor 16/Poly [ADP-ribose] polymerase 2; experiment: Protac activity at DCAF16 E3 ligase/PARP2 in human MDA-MB-231 cells assessed as induction of PARP2 degradation in nucleus at 0.5 uM measured after 24 hrs by DAPI staining based immunofluorescence microscopy; type: cell-based
Target sequence in this assay (Q9NXF7 whole entry, looked up): as the sequence (Q9NXF7 whole entry, looked up) above
Target sequence in this assay (Q9UGN5 whole entry, looked up): as the sequence (Q9UGN5 whole entry, looked up) above

[27] = Toxicity in BALB/c mouse xenografted with MDA-MB-231 cells assessed as mortality at 12.5 to 25 mg/kg, ip measured after 21 days; type: organism-based; settings: in vivo, 504 h, dose 12.5-25 mg/kg, time 21 day
[28] = molecular target: Poly [ADP-ribose] polymerase 1 (Homo sapiens, UniProt P09874); experiment: Inhibition of PARP1 (unknown origin)
MDA-MB-231 [29] = experiment: In vivo antitumor activity against human MDA-MB-231 cells xenografted BALB/c mouse assessed as tumor growth inhibition at 100 mg/kg, IG measured after 21 days; type: functional; settings: MDA-MB-231, po, 504 h, time 21 day, read-out: TGI
[30] = Toxicity in BALB/c mouse xenografted with MDA-MB-231 cells assessed as pathological changes in kidney at 25 mg/kg, ip measured after 21 days by hematoxylin and eosin staining based assay; type: organism-based; settings: in vivo, 504 h, time 21 day
[31] = molecular target: T1, DDB1- and CUL4-associated factor 16/Poly [ADP-ribose] polymerase 2; experiment: Protac activity at DCAF16 E3 ligase/PARP2 in human MDA-MB-231 cells assessed as maximum degradation of PARP2 measured after 24 hrs by Western blot analysis relative to control; type: cell-based
Target sequence in this assay (Q9NXF7 whole entry, looked up): as the sequence (Q9NXF7 whole entry, looked up) above
Target sequence in this assay (Q9UGN5 whole entry, looked up): as the sequence (Q9UGN5 whole entry, looked up) above

MDA-MB-231 [32] = experiment: Antitumor activity against human MDA-MB-231 cells xenografted BALB/c mouse assessed as reduction in tumor weight at 25 mg/kg, ip measured after 21 days; type: functional, organism-based; settings: time 21.0 day

Chain of Poly [ADP-ribose] polymerase 1 (P09874 whole entry): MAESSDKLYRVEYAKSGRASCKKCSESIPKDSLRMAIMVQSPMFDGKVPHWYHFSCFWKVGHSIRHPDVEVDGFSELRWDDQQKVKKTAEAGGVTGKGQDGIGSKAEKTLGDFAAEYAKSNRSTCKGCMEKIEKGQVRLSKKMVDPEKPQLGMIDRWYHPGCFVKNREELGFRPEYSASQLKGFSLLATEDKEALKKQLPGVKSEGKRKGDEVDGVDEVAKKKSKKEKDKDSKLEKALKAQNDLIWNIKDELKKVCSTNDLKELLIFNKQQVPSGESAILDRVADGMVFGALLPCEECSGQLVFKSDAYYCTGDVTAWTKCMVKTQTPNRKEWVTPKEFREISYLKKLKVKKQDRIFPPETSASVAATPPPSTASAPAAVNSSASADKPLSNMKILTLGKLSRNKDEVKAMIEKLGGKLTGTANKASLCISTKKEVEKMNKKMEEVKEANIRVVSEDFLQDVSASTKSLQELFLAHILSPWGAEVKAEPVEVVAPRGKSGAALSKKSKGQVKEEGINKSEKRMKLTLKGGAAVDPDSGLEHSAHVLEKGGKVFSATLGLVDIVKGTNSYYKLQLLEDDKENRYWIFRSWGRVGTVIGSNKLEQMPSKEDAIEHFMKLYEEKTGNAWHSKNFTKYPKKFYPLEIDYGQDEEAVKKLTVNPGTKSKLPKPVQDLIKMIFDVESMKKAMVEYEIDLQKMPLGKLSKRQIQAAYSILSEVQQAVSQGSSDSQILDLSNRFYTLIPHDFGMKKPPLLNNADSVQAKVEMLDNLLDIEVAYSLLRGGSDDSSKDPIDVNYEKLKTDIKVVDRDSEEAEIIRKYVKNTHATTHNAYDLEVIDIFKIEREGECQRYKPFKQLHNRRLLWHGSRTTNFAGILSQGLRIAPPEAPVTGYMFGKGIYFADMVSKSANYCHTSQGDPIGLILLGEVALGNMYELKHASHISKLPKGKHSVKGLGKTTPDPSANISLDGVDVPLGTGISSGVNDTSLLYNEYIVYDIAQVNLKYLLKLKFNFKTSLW
Chain of Poly [ADP-ribose] polymerase 2 (Q9UGN5 whole entry): as the sequence (Q9UGN5 whole entry, looked up) above

Compound: O=C(COc1ccc2c(c1)CCCN2C(=O)CCl)NCCCCCCCCCC(=O)N1CCN(C(=O)c2cc(Cc3n[nH]c(=O)c4ccccc34)ccc2F)CC1
- Activity [1]: Non-Toxic
- Activity [2]: Active
- inhibition (SW-620): Active
- inhibition (MV4-11): Active
- Activity [3]: Non-Toxic
- inhibition (NCI-H2228): Active
- IC50 (CAPAN-1): 61 nM
- Activity (MDA-MB-436 [4]): Dde
- inhibition (NCI-H3122): Active
- Activity [5]: Non-Toxic
- inhibition (SK-OV-3): Active
- Activity [6]: Non-Toxic
- inhibition in vivo at 12.5 mg/kg (MDA-MB-231 [7]): 82.9%
- Activity [8]: Active
- IC50 (MDA-MB-468 [9]): 690 nM
- Activity [10]: Non-Toxic
- Activity (MDA-MB-231 [11]): 20%
- IC50 (MDA-MB-231 [12]): 530 nM
- inhibition (MDA-MB-231 [13]): Dde
- Ratio IC50 (MDA-MB-231 [14]): 6
- IC50 [15]: 0.32 nM
- Activity [16]: Non-Toxic
- Ratio IC50 (MDA-MB-468 [17]): 6
- inhibition (HepG2): Active
- inhibition in vivo at 25 mg/kg (MDA-MB-231 [18]): 98.3%
- Activity [19]: Non-Toxic
- Activity [20]: Non-Toxic
- Activity (MDA-MB-231 [21]): Dde
- inhibition (HeLa): Active
- Activity [22]: Non-Toxic
- IC50 (MDA-MB-436 [23]): 26 nM
- Activity (L02): Non-Toxic
- DC50 [24]: 2000 nM
- Activity [25]: Active
- Activity [26]: Active
- Activity [27]: Non-Toxic
- IC50 [28]: 2.74 nM
- inhibition in vivo at 100 mg/kg (MDA-MB-231 [29]): 63.5%
- Activity [30]: Non-Toxic
- Activity [31]: > 92%
- Activity (MDA-MB-231 [32]): Active
